From publication PMC10673995, “Discovery of a novel cardiac-specific myosin modulator using artificial intelligence-based virtual screening” (Nature Communications, 2023)
“And” between values parts separate entries of the source, which are not always exact repeats. Identical values can stand only once.

Experiments:
[1] = target: T1, synthetic thick filaments formed from purified full-length bovine β-cardiac myosin (Bos taurus, UniProt Q9BE39); assay: mant-ATP chase single nucleotide turnover, synthetic thick filaments; type: biochemical; conditions: for Representative Traces (mant-ATP chase, fluorescence signal over time): Figure 3b
T1 construct: diluting full-length bovine cardiac myosin stock into assay buffer; from tissue; host or cells: bovine cardiac muscle (the text says isolated/purified and describes no preparation)
T1 sequence (Q9BE39 whole entry): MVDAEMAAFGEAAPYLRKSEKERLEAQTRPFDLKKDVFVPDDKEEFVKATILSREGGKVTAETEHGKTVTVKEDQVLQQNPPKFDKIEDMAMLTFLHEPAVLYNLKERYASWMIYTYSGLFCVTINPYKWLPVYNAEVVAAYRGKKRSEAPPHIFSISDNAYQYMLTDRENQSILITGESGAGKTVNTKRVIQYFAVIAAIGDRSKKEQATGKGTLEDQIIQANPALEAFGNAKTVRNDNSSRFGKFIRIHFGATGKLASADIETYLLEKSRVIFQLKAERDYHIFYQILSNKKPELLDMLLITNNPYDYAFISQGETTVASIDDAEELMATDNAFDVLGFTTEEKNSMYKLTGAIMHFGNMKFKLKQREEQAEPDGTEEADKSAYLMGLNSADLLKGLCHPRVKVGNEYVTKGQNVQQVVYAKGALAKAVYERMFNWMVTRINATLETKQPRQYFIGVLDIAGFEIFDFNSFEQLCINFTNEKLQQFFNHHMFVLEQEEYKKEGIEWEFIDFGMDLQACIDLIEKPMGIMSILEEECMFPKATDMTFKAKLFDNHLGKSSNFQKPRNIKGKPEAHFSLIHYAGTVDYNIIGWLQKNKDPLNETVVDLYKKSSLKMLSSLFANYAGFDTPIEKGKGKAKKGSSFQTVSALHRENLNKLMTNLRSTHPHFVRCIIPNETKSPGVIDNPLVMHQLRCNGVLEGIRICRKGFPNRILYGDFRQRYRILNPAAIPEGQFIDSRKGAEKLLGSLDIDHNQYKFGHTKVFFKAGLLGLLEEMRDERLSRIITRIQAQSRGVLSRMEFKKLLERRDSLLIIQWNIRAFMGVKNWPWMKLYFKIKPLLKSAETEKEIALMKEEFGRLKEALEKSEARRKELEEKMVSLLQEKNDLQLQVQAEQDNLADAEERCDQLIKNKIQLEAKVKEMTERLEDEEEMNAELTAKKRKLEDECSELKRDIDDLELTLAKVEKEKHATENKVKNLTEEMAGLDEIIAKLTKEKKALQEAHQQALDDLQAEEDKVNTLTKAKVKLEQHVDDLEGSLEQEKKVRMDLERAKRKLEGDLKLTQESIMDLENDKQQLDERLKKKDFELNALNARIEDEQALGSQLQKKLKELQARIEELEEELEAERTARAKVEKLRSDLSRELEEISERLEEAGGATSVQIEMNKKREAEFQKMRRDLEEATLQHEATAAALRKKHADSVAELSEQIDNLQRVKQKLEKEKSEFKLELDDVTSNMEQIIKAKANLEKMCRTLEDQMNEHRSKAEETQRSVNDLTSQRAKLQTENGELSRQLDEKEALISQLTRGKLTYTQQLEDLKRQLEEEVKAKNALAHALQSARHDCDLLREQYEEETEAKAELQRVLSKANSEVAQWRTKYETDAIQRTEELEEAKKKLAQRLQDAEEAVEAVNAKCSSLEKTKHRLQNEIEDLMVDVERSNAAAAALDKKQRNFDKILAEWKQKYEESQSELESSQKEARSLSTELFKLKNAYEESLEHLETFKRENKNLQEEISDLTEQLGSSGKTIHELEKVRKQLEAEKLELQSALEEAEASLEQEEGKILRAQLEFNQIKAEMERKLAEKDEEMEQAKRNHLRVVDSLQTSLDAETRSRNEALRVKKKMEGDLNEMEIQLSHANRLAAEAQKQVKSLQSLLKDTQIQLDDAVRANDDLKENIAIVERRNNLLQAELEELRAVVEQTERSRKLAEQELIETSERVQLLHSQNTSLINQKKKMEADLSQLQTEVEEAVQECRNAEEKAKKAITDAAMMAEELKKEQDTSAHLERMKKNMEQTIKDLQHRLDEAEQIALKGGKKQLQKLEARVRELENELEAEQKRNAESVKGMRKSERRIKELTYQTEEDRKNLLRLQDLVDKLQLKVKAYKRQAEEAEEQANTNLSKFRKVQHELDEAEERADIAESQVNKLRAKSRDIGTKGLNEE
T1 sequence (P85100 whole entry partner): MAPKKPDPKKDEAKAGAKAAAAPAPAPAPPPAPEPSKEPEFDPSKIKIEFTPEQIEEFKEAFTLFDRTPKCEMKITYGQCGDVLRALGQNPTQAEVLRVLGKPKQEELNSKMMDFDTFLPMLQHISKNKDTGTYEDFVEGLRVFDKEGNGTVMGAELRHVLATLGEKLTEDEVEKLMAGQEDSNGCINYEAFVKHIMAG
T1 sequence (Q3SZE5 whole entry partner): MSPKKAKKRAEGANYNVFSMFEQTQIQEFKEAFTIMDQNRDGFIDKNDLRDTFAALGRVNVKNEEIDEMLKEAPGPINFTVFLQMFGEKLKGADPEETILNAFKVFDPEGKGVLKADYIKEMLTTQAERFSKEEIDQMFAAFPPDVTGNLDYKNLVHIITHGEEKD
From the text: We used systems of increasing complexity ranging from the isolated cardiac myosin motor domains (Fig. 3a) to synthetic thick filaments formed from purified full-length bovine cardiac myosin (Fig. 3b) and bovine cardiac myofibrils as substrates in the chase assays (Fig. 3c). In contrast to the isolated myosin motors, synthetic thick filaments contain two myosin head domains per molecule connected via their coiled-coil tail.
Synthetic thick filaments were freshly prepared by diluting full-length bovine cardiac myosin stock into assay buffer (composition in mmol L^−1: 15 PIPES pH 7, 5 MgCl2, 1 DTT) and incubation on ice for 2 h. Bovine myosin S1 and synthetic thick filament concentrations were adjusted to 0.4 μmol L^−1 with assay buffer and 40 μL aliquoted into individual wells of a black 384-well plate (Greiner). Mant-ATP (JenaBioscience) was added to each well to a final concentration of 0.4 μmol L^−1 using an automated injector unit in a ClarioStar Plate Reader (BMG LabTech) and the system was allowed to age for 1 min. The chase phase was started by adding a final concentration of 2 mmol L^−1 ATP using a second automated injector unit. Fluorescence intensity from each well was constantly measured for 15 min every 1 sec at 25 °C with the following settings: excitation at 360 nm with a 20 nm bandwidth and emission at 450 nm with a 20 nm bandwidth. For experiments with cardiac myofibrils the concentration was adjusted to 1 mg m L^−1, and the mant-ATP and ATP concentrations were increased to 20 μmol L^−1 and 20 mmol L^−1, respectively.

bovine cardiac myosin S1 = bovine cardiac myosin S1 (Bos taurus, UniProt Q9BE39); assay: mant-ATP chase single nucleotide turnover, myosin S1; conditions: for Representative Traces (mant-ATP chase, normalised signal): representative trace, sheet Figure 3a;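 as to all read-outs here: 0.4 µM S1 preloaded with equimolar mant-ATP, chased by 2 mM ATP, mant fluorescence (ex 360, em 450 nm) read each second over 15 min at 25 °C, biexponential fit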
Chain of bovine cardiac myosin S1 (Q9BE39 85-778 limits assumed): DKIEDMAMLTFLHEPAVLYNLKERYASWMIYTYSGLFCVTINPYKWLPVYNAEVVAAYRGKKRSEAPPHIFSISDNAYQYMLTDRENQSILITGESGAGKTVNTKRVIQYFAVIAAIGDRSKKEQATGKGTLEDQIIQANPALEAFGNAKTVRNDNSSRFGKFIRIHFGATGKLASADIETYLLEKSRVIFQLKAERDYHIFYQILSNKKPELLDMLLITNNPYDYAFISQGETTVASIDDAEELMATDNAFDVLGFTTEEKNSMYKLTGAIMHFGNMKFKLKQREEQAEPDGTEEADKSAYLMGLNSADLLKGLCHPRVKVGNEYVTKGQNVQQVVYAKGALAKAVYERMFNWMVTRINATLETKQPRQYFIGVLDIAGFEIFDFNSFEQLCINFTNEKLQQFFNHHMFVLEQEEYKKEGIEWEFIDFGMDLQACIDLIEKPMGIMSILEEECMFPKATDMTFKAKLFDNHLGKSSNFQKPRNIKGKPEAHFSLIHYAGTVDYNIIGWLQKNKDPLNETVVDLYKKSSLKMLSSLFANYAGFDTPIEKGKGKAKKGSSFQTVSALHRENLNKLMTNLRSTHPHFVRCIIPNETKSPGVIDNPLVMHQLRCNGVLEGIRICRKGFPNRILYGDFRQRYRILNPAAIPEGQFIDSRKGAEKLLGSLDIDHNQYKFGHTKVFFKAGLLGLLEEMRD
Chain of bovine cardiac myosin S1 (P85100 whole entry partner): as the sequence (P85100 whole entry partner) above
From the text: Chase of mant-ATP loaded cardiac myosin S1 with ATP leads to a decrease in the mant fluorescence intensity which is best described by a bi-exponential decay function with an initial fast phase followed by a second slower phase, corresponding to the so-called disordered (DRX) and super-relaxed state (SRX) of myosin, respectively.

[2] = Synthetic Myosin Filaments, individual replicates
[3] = Beta-cardiac myosin S1, individual replicates

With `CCc1cc2c(=O)n(NC(=S)NC(C)C)cnc2s1` [F10] the “effect on the rate of the fast DRX phase” value [1] was “no effect”, the “Bar graph (Figure 3b, mant-ATP chase)” value ([1]; Figure 3b source data, individual replicate values) was 60.72 and 53.1 and 55.77 and 61 and 84.67 and 56.52 and 70.86 and the “Representative Traces (mant-ATP chase, fluorescence signal over time)” value ([1]; t = 796 s) was 0.1829. The “Representative Traces (mant-ATP chase, fluorescence signal over time)” value ([1]; t = 797 s) was 0.2272, the kfast [1, 2] was 0.05914 s⁻¹ and 0.02268 s⁻¹ and 0.03788 s⁻¹ and 0.03196 s⁻¹ and 0.0963 s⁻¹ and 0.1619 s⁻¹ and the kslow [1, 2] was 0.004733 s⁻¹ and 0.003729 s⁻¹ and 0.003941 s⁻¹ and 0.001622 s⁻¹ and 0.001835 s⁻¹ and 0.001574 s⁻¹. For the same molecule, the slow phase [1, 2] was 53.1% and 55.77% and 61% and 84.67% and 56.52% and 70.86%, the kslow ([1]; control 0.0046 ± 0.0007) was 0.0027 ± 0.0005 s⁻¹ and the “Slow Phase [%] (SRX amplitude)” value ([1]; control 22.9 ± 2.8) was 63.2 ± 4.2% and ~63%. For the same molecule, the kfast ([1]; control […]) was 0.0784 ± 0.0208 s⁻¹, the kslow (bovine cardiac myosin S1; 2 μmol L^-1 Mavacamten or 20 μmol L^-1 F10, control 0.0058 ± 0.0010) was 0.0014 ± 0.0002 s⁻¹ and the kfast (bovine cardiac myosin S1; [3]) was 0.05055 s⁻¹ and 0.0447 s⁻¹ and 0.0368 s⁻¹ and 0.05306 s⁻¹ and 0.06378 s⁻¹ and 0.02378 s⁻¹. For the same molecule, the kslow (bovine cardiac myosin S1; [3]) was 0.0006967 s⁻¹ and 0.00183 s⁻¹ and 0.001814 s⁻¹ and 0.000778 s⁻¹ and 0.001483 s⁻¹ and 0.001764 s⁻¹, the slow phase (bovine cardiac myosin S1; [3]) was 77.15% and 78.62% and 63.91% and 49.91% and 65.48% and 83.8% and the “Representative Traces, normalised fluorescence” value (bovine cardiac myosin S1; t 396 s) was 0.3381. The “Representative Traces, normalised fluorescence” value (bovine cardiac myosin S1; t 397 s) was 0.3913, the “Representative Traces, normalised fluorescence” value (bovine cardiac myosin S1; t 398 s) was 0.3527 and the “Representative Traces, normalised fluorescence” value (bovine cardiac myosin S1; t 399 s) was 0.3731. The “Representative Traces, normalised fluorescence” value (bovine cardiac myosin S1; t 400 s) was 0.3893, the “Representative Traces, normalised fluorescence” value (bovine cardiac myosin S1; t 401 s) was 0.3649 and the “Representative Traces, normalised fluorescence” value (bovine cardiac myosin S1; t 402 s) was 0.346. The “Representative Traces, normalised fluorescence” value (bovine cardiac myosin S1; t 403 s) was 0.3664, the “Representative Traces, normalised fluorescence” value (bovine cardiac myosin S1; t 404 s) was 0.3754 and the “Representative Traces, normalised fluorescence” value (bovine cardiac myosin S1; t 405 s) was 0.395. For the same molecule, the “Representative Traces, normalised fluorescence” value (bovine cardiac myosin S1; t 406 s) was 0.3542, the “Representative Traces, normalised fluorescence” value (bovine cardiac myosin S1; t 407 s) was 0.3529 and the “Representative Traces, normalised fluorescence” value (bovine cardiac myosin S1; t 408 s) was 0.371. For the same molecule, the “Representative Traces, normalised fluorescence” value (bovine cardiac myosin S1; t 409 s) was 0.3805, the “Representative Traces, normalised fluorescence” value (bovine cardiac myosin S1; t 410 s) was 0.3829 and the “Representative Traces, normalised fluorescence” value (bovine cardiac myosin S1; t 411 s) was 0.3594. The “Representative Traces, normalised fluorescence” value (bovine cardiac myosin S1; t 412 s) was 0.3318, the “Representative Traces, normalised fluorescence” value (bovine cardiac myosin S1; t 413 s) was 0.3454 and the “Representative Traces, normalised fluorescence” value (bovine cardiac myosin S1; t 414 s) was 0.3732. The “Representative Traces, normalised fluorescence” value (bovine cardiac myosin S1; t 415 s) was 0.3239, the “Representative Traces, normalised fluorescence” value (bovine cardiac myosin S1; t 416 s) was 0.3536 and the “Representative Traces, normalised fluorescence” value (bovine cardiac myosin S1; t 417 s) was 0.3763. The “Representative Traces, normalised fluorescence” value (bovine cardiac myosin S1; t 418 s) was 0.4062, the “Representative Traces, normalised fluorescence” value (bovine cardiac myosin S1; t 419 s) was 0.3409 and the “Representative Traces, normalised fluorescence” value (bovine cardiac myosin S1; t 420 s) was 0.3417. For the same molecule, the “Representative Traces, normalised fluorescence” value (bovine cardiac myosin S1; t 421 s) was 0.3218, the “Representative Traces, normalised fluorescence” value (bovine cardiac myosin S1; t 422 s) was 0.3761 and the “Representative Traces, normalised fluorescence” value (bovine cardiac myosin S1; t 423 s) was 0.3809. For the same molecule, the “Representative Traces, normalised fluorescence” value (bovine cardiac myosin S1; t 424 s) was 0.3886, the “Representative Traces, normalised fluorescence” value (bovine cardiac myosin S1; t 425 s) was 0.4176 and the “Representative Traces, normalised fluorescence” value (bovine cardiac myosin S1; t 426 s) was 0.3716. The “Representative Traces, normalised fluorescence” value (bovine cardiac myosin S1; t 427 s) was 0.348, the “Representative Traces, normalised fluorescence” value (bovine cardiac myosin S1; t 428 s) was 0.3822 and the “Representative Traces, normalised fluorescence” value (bovine cardiac myosin S1; t 429 s) was 0.3572. The “Representative Traces, normalised fluorescence” value (bovine cardiac myosin S1; t 430 s) was 0.3286, the “Representative Traces, normalised fluorescence” value (bovine cardiac myosin S1; t 431 s) was 0.4152 and the “Representative Traces, normalised fluorescence” value (bovine cardiac myosin S1; t 432 s) was 0.3207. The “Representative Traces, normalised fluorescence” value (bovine cardiac myosin S1; t 433 s) was 0.376, the “Representative Traces, normalised fluorescence” value (bovine cardiac myosin S1; t 434 s) was 0.351 and the “Representative Traces, normalised fluorescence” value (bovine cardiac myosin S1; t 435 s) was 0.3814. The “Representative Traces, normalised fluorescence” value (bovine cardiac myosin S1; t 436 s) was 0.3747, the “Representative Traces, normalised fluorescence” value (bovine cardiac myosin S1; t 437 s) was 0.339 and the “Representative Traces, normalised fluorescence” value (bovine cardiac myosin S1; t 438 s) was 0.3394. For the same molecule, the “Representative Traces, normalised fluorescence” value (bovine cardiac myosin S1; t 439 s) was 0.2828, the “Representative Traces, normalised fluorescence” value (bovine cardiac myosin S1; t 440 s) was 0.3588 and the “Representative Traces, normalised fluorescence” value (bovine cardiac myosin S1; t 441 s) was 0.3824. The “Representative Traces, normalised fluorescence” value (bovine cardiac myosin S1; t 442 s) was 0.3473, the “Representative Traces, normalised fluorescence” value (bovine cardiac myosin S1; t 443 s) was 0.3776 and the “Representative Traces, normalised fluorescence” value (bovine cardiac myosin S1; t 444 s) was 0.2942. For the same molecule, the “Representative Traces, normalised fluorescence” value (bovine cardiac myosin S1; t 445 s) was 0.3451, the “Representative Traces, normalised fluorescence” value (bovine cardiac myosin S1; t 446 s) was 0.3599 and the “Representative Traces, normalised fluorescence” value (bovine cardiac myosin S1; t 447 s) was 0.3632. For the same molecule, the “Representative Traces, normalised fluorescence” value (bovine cardiac myosin S1; t 448 s) was 0.3962, the “Representative Traces, normalised fluorescence” value (bovine cardiac myosin S1; t 449 s) was 0.3522 and the “Representative Traces, normalised fluorescence” value (bovine cardiac myosin S1; t 450 s) was 0.334. For the same molecule, the “Representative Traces, normalised fluorescence” value (bovine cardiac myosin S1; t 451 s) was 0.3312, the “Representative Traces, normalised fluorescence” value (bovine cardiac myosin S1; t 452 s) was 0.3355 and the “Representative Traces, normalised fluorescence” value (bovine cardiac myosin S1; t 453 s) was 0.3202. For the same molecule, the “Representative Traces, normalised fluorescence” value (bovine cardiac myosin S1; t 454 s) was 0.3011, the “Representative Traces, normalised fluorescence” value (bovine cardiac myosin S1; t 455 s) was 0.3492 and the “Representative Traces, normalised fluorescence” value (bovine cardiac myosin S1; t 456 s) was 0.2942. For the same molecule, the “Representative Traces, normalised fluorescence” value (bovine cardiac myosin S1; t 457 s) was 0.3901, the “Representative Traces, normalised fluorescence” value (bovine cardiac myosin S1; t 458 s) was 0.3305 and the “Representative Traces, normalised fluorescence” value (bovine cardiac myosin S1; t 459 s) was 0.3712. For the same molecule, the “Representative Traces, normalised fluorescence” value (bovine cardiac myosin S1; t 460 s) was 0.3492, the “Representative Traces, normalised fluorescence” value (bovine cardiac myosin S1; t 461 s) was 0.3691 and the “Representative Traces, normalised fluorescence” value (bovine cardiac myosin S1; t 462 s) was 0.3499. The “Representative Traces, normalised fluorescence” value (bovine cardiac myosin S1; t 463 s) was 0.3959, the “Representative Traces, normalised fluorescence” value (bovine cardiac myosin S1; t 464 s) was 0.3352 and the “Representative Traces, normalised fluorescence” value (bovine cardiac myosin S1; t 465 s) was 0.2964. The “Representative Traces, normalised fluorescence” value (bovine cardiac myosin S1; t 466 s) was 0.3332, the “Representative Traces, normalised fluorescence” value (bovine cardiac myosin S1; t 467 s) was 0.3397 and the “Representative Traces, normalised fluorescence” value (bovine cardiac myosin S1; t 468 s) was 0.2957. For the same molecule, the “Representative Traces, normalised fluorescence” value (bovine cardiac myosin S1; t 469 s) was 0.3164, the “Representative Traces, normalised fluorescence” value (bovine cardiac myosin S1; t 470 s) was 0.3318 and the “Representative Traces, normalised fluorescence” value (bovine cardiac myosin S1; t 471 s) was 0.303. For the same molecule, the “Representative Traces, normalised fluorescence” value (bovine cardiac myosin S1; t 472 s) was 0.2843, the “Representative Traces, normalised fluorescence” value (bovine cardiac myosin S1; t 473 s) was 0.3488 and the “Representative Traces, normalised fluorescence” value (bovine cardiac myosin S1; t 474 s) was 0.3514. The “Representative Traces, normalised fluorescence” value (bovine cardiac myosin S1; t 475 s) was 0.3348, the “Representative Traces, normalised fluorescence” value (bovine cardiac myosin S1; t 476 s) was 0.2621 and the “Representative Traces, normalised fluorescence” value (bovine cardiac myosin S1; t 477 s) was 0.3016. The “Representative Traces, normalised fluorescence” value (bovine cardiac myosin S1; t 478 s) was 0.2808, the “Representative Traces, normalised fluorescence” value (bovine cardiac myosin S1; t 479 s) was 0.2939 and the “Representative Traces, normalised fluorescence” value (bovine cardiac myosin S1; t 480 s) was 0.3383. For the same molecule, the “Representative Traces, normalised fluorescence” value (bovine cardiac myosin S1; t 481 s) was 0.3502, the “Representative Traces, normalised fluorescence” value (bovine cardiac myosin S1; t 482 s) was 0.3436 and the “Representative Traces, normalised fluorescence” value (bovine cardiac myosin S1; t 483 s) was 0.4051. The “Representative Traces, normalised fluorescence” value (bovine cardiac myosin S1; t 484 s) was 0.3367, the “Representative Traces, normalised fluorescence” value (bovine cardiac myosin S1; t 485 s) was 0.376 and the “Representative Traces, normalised fluorescence” value (bovine cardiac myosin S1; t 486 s) was 0.3528. The “Representative Traces, normalised fluorescence” value (bovine cardiac myosin S1; t 487 s) was 0.3472, the “Representative Traces, normalised fluorescence” value (bovine cardiac myosin S1; t 488 s) was 0.3853 and the “Representative Traces, normalised fluorescence” value (bovine cardiac myosin S1; t 489 s) was 0.3935. The “Representative Traces, normalised fluorescence” value (bovine cardiac myosin S1; t 490 s) was 0.3358, the “Representative Traces, normalised fluorescence” value (bovine cardiac myosin S1; t 491 s) was 0.3169 and the “Representative Traces, normalised fluorescence” value (bovine cardiac myosin S1; t 492 s) was 0.3123. For the same molecule, the “Representative Traces, normalised fluorescence” value (bovine cardiac myosin S1; t 493 s) was 0.2845, the “Representative Traces, normalised fluorescence” value (bovine cardiac myosin S1; t 494 s) was 0.2849 and the “Representative Traces, normalised fluorescence” value (bovine cardiac myosin S1; t 495 s) was 0.3259. The “Representative Traces (mant-ATP chase, normalised signal)” value (bovine cardiac myosin S1; t = 796 s) was 0.1783 and the “Representative Traces (mant-ATP chase, normalised signal)” value (bovine cardiac myosin S1; t = 797 s) was 0.1159.
